Experiments:
Assay in all cases: relative viability (nuclei count vs DMSO), 5 days (fraction); higher = more cells survive
[1] = compound: C1COCCN1CC2=CC(=O)C(=CO2)OCCCCCSC3=C4C=CC(=CC4=NC=C3)C(F)(F)F [EHT 1864] + O=C(c1cc(Cc2n[nH]c(=O)c3ccccc23)ccc1F)N1CCN(C(=O)C2CC2)CC1 [Olaparib] (partner 8 µM)
In short: (§1)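 For relative viability, nuclei counts in treated wells were divided by those in vehicle wells. Lung cancer cell lines had been pin-tool dosed in 1536-well plates the day after seeding and cultured for 5 days, then fixed and stained in one step (final 0.05% Triton X-100, 1% formaldehyde, 1 ug/ml Hoechst) and imaged at 4×. Doses were one drug alone or a fixed anchor-drug dose plus five library-drug doses (not always all listed) in √10 steps, and values are duplicate-plate medians.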

[2] = compound: C1COCCN1CC2=CC(=O)C(=CO2)OCCCCCSC3=C4C=CC(=CC4=NC=C3)C(F)(F)F [EHT 1864] + NC(=O)Nc1cc(-c2cccc(F)c2)sc1C(=O)N[C@H]1CCCNC1 [AZD7762] (partner 0.2 µM)
In short: as §1

[3] = compound: C1COCCN1CC2=CC(=O)C(=CO2)OCCCCCSC3=C4C=CC(=CC4=NC=C3)C(F)(F)F [EHT 1864] + CS(=O)(=O)CCNCc1ccc(-c2ccc3ncnc(Nc4ccc(OCc5cccc(F)c5)c(Cl)c4)c3c2)o1 [Lapatinib] (partner 2 µM)
In short: as §1

[4] = compound: C1COCCN1CC2=CC(=O)C(=CO2)OCCCCCSC3=C4C=CC(=CC4=NC=C3)C(F)(F)F [EHT 1864] + Nc1ncn([C@H]2C[C@H](O)[C@@H](CO)O2)c(=O)n1 [Decitabine] (partner 2 µM)
In short: as §1

Row | Cell Line | relative viability ([1]; first compound 0.04 µM) | relative viability ([1]; first compound 0.1265 µM) | relative viability ([1]; first compound 0.4 µM) | relative viability ([1]; first compound 1.265 µM) | relative viability ([1]; first compound 4 µM) | relative viability ([2]; first compound 0.04 µM) | relative viability ([2]; first compound 0.1265 µM) | relative viability ([2]; first compound 0.4 µM) | relative viability ([2]; first compound 1.265 µM) | relative viability ([2]; first compound 4 µM) | relative viability ([3]; first compound 0.04 µM) | relative viability ([3]; first compound 0.1265 µM) | relative viability ([3]; first compound 0.4 µM) | relative viability ([3]; first compound 1.265 µM) | relative viability ([3]; first compound 4 µM) | relative viability ([4]; first compound 0.04 µM) | relative viability ([4]; first compound 0.1265 µM) | relative viability ([4]; first compound 0.4 µM) | relative viability ([4]; first compound 1.265 µM) | relative viability ([4]; first compound 4 µM)
1 | HCC-827 | 0.79 | 0.641 | 0.625 | 0.652 | 0.633 | 0.198 | 0.22 | 0.228 | 0.252 | 0.201 | 0.233 | 0.204 | 0.219 | 0.164 | 0.191 | 0.332 | 0.291 | 0.319 | 0.399 | 0.317
2 | HOP-62 | 0.448 | – | 0.435 | 0.438 | 0.453 | 0.584 | – | 0.466 | 0.485 | 0.794 | 1.07 | – | 1.01 | 1.09 | 1.18 | 0.225 | – | 0.202 | 0.241 | 0.246
3 | IA-LM | 0.926 | 0.842 | 0.81 | 0.62 | 0.618 | – | – | – | – | – | 0.704 | – | 0.74 | – | 0.622 | – | – | – | – | –
4 | LC-2-ad | 0.602 | 0.671 | 0.657 | 0.671 | 0.625 | 0.808 | 0.634 | 0.88 | 0.855 | 0.806 | 0.993 | – | 0.954 | 0.904 | 0.835 | 0.783 | 0.733 | 0.762 | 0.773 | 0.755
5 | LCLC-103H | 0.742 | 0.694 | 0.739 | 0.718 | 0.734 | 0.823 | 0.686 | 0.818 | 0.698 | 0.5 | – | – | – | – | – | 0.734 | 0.67 | 0.744 | 0.708 | 0.66
6 | NCI-H441 | 0.562 | – | 0.503 | 0.477 | 0.617 | 1.01 | – | 1.04 | 1.11 | 1.5 | – | – | – | – | – | 0.246 | – | 0.241 | 0.234 | 0.241
7 | NCI-H520 | 0.271 | 0.318 | 0.354 | 0.419 | 0.351 | – | – | – | – | – | 0.833 | 0.743 | 0.834 | 0.913 | 0.694 | 0.545 | 0.496 | 0.535 | 0.493 | 0.445
8 | NCI-H522 | 0.719 | 0.66 | 0.63 | 0.666 | 0.734 | 0.844 | 0.774 | 0.802 | 0.973 | 1.07 | – | – | – | – | – | 0.592 | 0.685 | 0.709 | 0.702 | 0.703
9 | NCI-H661 | 0.799 | 0.685 | 0.684 | 0.606 | 0.567 | – | – | – | – | – | 0.429 | 0.488 | 0.511 | 0.429 | 0.503 | 0.609 | 0.527 | 0.581 | 0.576 | 0.514
10 | NCI-H1563 | – | – | – | – | – | – | – | – | – | – | 1.01 | 0.986 | 0.953 | 0.949 | 0.813 | – | – | – | – | –
11 | NCI-H1648 | 0.765 | – | 0.759 | 0.769 | 0.984 | 0.72 | – | 0.609 | 0.662 | 0.866 | – | – | – | – | – | 0.564 | – | 0.471 | 0.502 | 0.643
12 | NCI-H1650 | 0.722 | 0.63 | 0.776 | 0.845 | 0.682 | – | – | – | – | – | 0.741 | 0.443 | 0.812 | 0.841 | 0.589 | 0.411 | 0.385 | 0.435 | 0.47 | 0.5
13 | NCI-H1703 | 0.396 | – | 0.461 | 0.277 | 0.291 | 0.128 | – | 0.118 | 0.128 | 0.15 | 0.796 | 0.857 | 1.21 | 1.01 | 0.854 | – | – | – | – | –
14 | NCI-H2009 | 0.618 | 0.548 | 0.702 | 0.66 | 0.49 | – | – | – | – | – | 0.77 | 0.749 | 0.921 | 0.963 | 0.824 | 0.357 | 0.356 | 0.354 | 0.382 | 0.412
15 | NCI-H2023 | 0.403 | 0.525 | 0.411 | 0.48 | 0.461 | – | – | – | – | – | 0.813 | 0.558 | 0.727 | 0.919 | 0.84 | 0.213 | 0.212 | 0.223 | 0.259 | 0.176
16 | NCI-H2228 | 0.614 | 0.661 | 0.66 | – | 0.61 | – | – | – | – | – | 1.08 | 0.68 | 1.03 | 1.13 | 1.02 | – | – | – | – | –
17 | NCI-H2342 | 0.402 | 0.409 | 0.474 | 0.39 | 0.451 | 0.426 | 0.438 | 0.472 | 0.51 | 0.492 | – | – | – | – | – | 0.712 | 0.562 | 0.787 | 0.751 | 0.763
18 | SK-LU-1 | 0.464 | 0.515 | 0.471 | 0.451 | 0.447 | – | – | – | – | – | 0.91 | 0.65 | 0.795 | 0.878 | 0.781 | 0.732 | 0.632 | 0.567 | 0.657 | 0.658
19 | SK-MES-1 | 0.768 | 0.765 | 0.775 | 0.737 | 0.698 | – | – | – | – | – | 0.469 | 0.48 | 0.517 | 0.439 | 0.443 | 0.365 | 0.398 | 0.377 | 0.448 | 0.41
20 | SW 900 | 0.73 | – | 0.907 | 0.857 | 0.803 | 0.582 | – | 0.681 | 0.632 | 0.59 | – | – | – | – | – | 0.449 | – | 0.419 | 0.46 | 0.504
21 | SW 1573 | 0.499 | 0.515 | 0.451 | 0.472 | 0.423 | – | – | – | – | – | 1.22 | 0.912 | 1.12 | 1.03 | 1.06 | 0.655 | 0.478 | 0.463 | 0.55 | 0.339
22 | UMC-11 | 0.379 | 0.383 | 0.426 | 0.383 | 0.356 | – | – | – | – | – | 0.724 | – | 1.05 | 0.938 | 0.987 | 0.447 | 1.15 | 0.731 | 0.693 | 0.736

Reference: the supplement of paper PMC10307832
